From patent publication US11066443B2 (Hoffmann-La Roche Inc., priority 2017, dated 2021)
pIC50: −log10 of the molar value. Values after ≈ are worked out from the molar mass of the structure shown.

What was measured:
P. aeruginosa ATCC27853 = assay: Antimicrobial susceptibility testing: microbroth minimum inhibitory concentration (MIC) determination; assay type: cell-based; conditions: Pseudomonas aeruginosa, CLSI microbroth dilution in CAMHB, read after 20 hours, lowest concentration inhibiting >=80% of growth
Description: The in vitro antimicrobial activity of the compounds was determined through microbroth minimum inhibitory concentration (MIC) methodology performed according to the Clinical and Laboratory Standard Institute guidelines (CLSI—M07-A9 Jan. 2012. Methods for Dilution Antimicrobial Susceptibility Tests for Bacteria That Grow Aerobically; Approved Standard—Ninth Edition, Clinical and Laboratory Standards Institue, Wayne/PA, US and the CLSI—M100-S24 Jan. 2014. Performance Standards for Antimicrobial Susceptibility Testing; Approved Standard—Fourth Informational Supplement, Clinical and Laboratory Standards Institue, Wayne/PA, US).
The compound stock solution was freshly prepared at 10× the required top concentration for the MIC determination, i.e. at 1280 mg/L, by reconstitution of the dry compound in 50:50 water:DMSO.
Polystyrene non-treated 96 wells microtiter plates were used for preparing panel containing compound serial twofold diluted at two times the final testing concentration (e.g. range from 64 to 0.06 μg/ml) in cation adjusted Mueller Hinton broth medium (CAMHB).
Inoculum was prepared by the “direct colony suspension method”. Colonies of P. aeruginosa ATCC27853 or clinical isolates were suspended in saline solution and adjusted to 0.5 McFarland, diluted 100 times in CAMHB broth and 50 μl added to each well (final concentration of cells ˜5×10^(5) CFU/ml and Final volume/well of 100 μl). Microtiter plates were sealed and incubated at 35±2° C.
MICs values were read after 20 hours of incubation and recorded as the lowest concentration of the antimicrobial that inhibits more or equal to 80% of growth of the organism as detected by the unaided eye and using a microtiter plate optical density reader (OD 600 nm).
Table 1 provides the minimum inhibitory concentration (MIC) in microgram per milliliter of the compounds of present invention obtained against the P. aeruginosa ATCC27853 (Table 1).

P. aeruginosa NCTC11454 = assay: Antimicrobial susceptibility testing: 50% growth inhibitory concentration (IC50) determination; assay type: cell-based; conditions: Pseudomonas aeruginosa, Iso-Sensitest broth, OD 600 nm every 20 minutes over 16h, growth inhibition during logarithmic growth
Outline: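 Twofold dilutions (e.g. 50–0.097 μM final) in Iso-Sensitest broth were inoculated with P. aeruginosa NCTC11454 at ~5×10^5 CFU/mL and incubated at 35±2 °C. OD600 was read every 20 min over 16 h. IC50 was derived from growth inhibition in the logarithmic phase.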

| SMILES | MIC (P. aeruginosa ATCC27853) [µg/mL] | pIC50 (P. aeruginosa NCTC11454) |
| --- | --- | --- |
| Cc1[nH]c2ccccc2c1C[C@H]1C(=O)NCc2cc(Cl)ccc2Sc2ccccc2CN[C@@H](CCCN)C(=O)N[C@@H](CCCCN)C(=O)N1C [Example 15, (12S,15S,18S)-15-(4-Amino-butyl)-18-(3-amino-propyl)-6-chloro-13-methyl-12-(2-methyl-1H-indol-3-ylmethyl)-2-thia-10,13,16,19-tetraaza-tricyclo[19.4.0.0*3,8*]pentacosa-1(21),3,5,7,22,24-hexaene-1,14,17-trione] | 32 (≈ 44.5 µM) | 4.50 |
| CN1C(=O)[C@H](CCCCN)NC(=O)[C@H](CCCN)NCc2ccccc2Sc2cc(Cl)ccc2CNC(=O)[C@@H]1Cc1c[nH]c2ccccc12 [Example 2, (12S,15S,18S)-15-(4-Amino-butyl)-18-(3-amino-propyl)-5-chloro-12-(1H-indol-3-ylmethyl)-13-methyl-2-thia-10,13,16,19-tetraaza-tricyclo[19.4.0.0*3,8*]pentacosa-1(21),3,5,7,22,24-hexaene-11,14,17-trione] | 32 (≈ 45.4 µM) | < 4.30 |
| CN1C(=O)[C@H](CCCCN)NC(=O)[C@H](CCCN)NCc2cc(F)ccc2Sc2c(Cl)cc(Cl)cc2CNC(=O)[C@@H]1Cc1c[nH]c2ccccc12 [Example 12, (12S,15S,18S)-15-(4-Amino-butyl)-18-(3-amino-propyl)-4,6-dichloro-23-fluoro-12-(1H-indol-3-ylmethyl)-13-methyl-2-thia-10,13,16,19-tetraaza-tricyclo[19.4.0.0*3,8*]pentacosa-1(25),3,5,7,21,23-hexaene-11,14,17-trione] | 32 (≈ 42.3 µM) | – |
| Cc1cccc2c1Sc1ccccc1CN[C@@H](CCCN)C(=O)N[C@@H](CCCCN)C(=O)N(C)[C@@H](Cc1c(C)[nH]c3ccccc13)C(=O)NC2 [Example 16, (12S,15S,18S)-15-(4-Amino-butyl)-18-(3-amino-propyl)-4,13-dimethyl-12-(2-methyl-1H-indol-3-ylmethyl)-2-thia-10,13,16,19-tetraaza-tricyclo[19.4.0.0*3,8*]pentacosa-1(21),3,5,7,22,24-hexaene-11,14,17-trione] | 32 (≈ 45.8 µM) | – |
| CN1C(=O)[C@H](CCCCN)NC(=O)[C@H](CCCN)NCc2cccnc2Sc2c(cc(C(F)(F)F)cc2C(F)(F)F)CNC(=O)[C@@H]1Cc1c[nH]c2ccccc12 [Example 23, (11S,14S,17S)-14-(4-Amino-butyl)-11-(3-amino-propyl)-17-(1H-indol-3-ylmethyl)-16-methyl-23,25-bis-trifluoromethyl-2-thia-4,10,13,16,19-pentaaza-tricyclo[19.4.0.0*3,8*]pentacosa-1(25),3,5,7,21,23-hexaene-12,15,18-trione] | 32 (≈ 39.7 µM) | – |
| CN1C(=O)[C@H](CCCCN)NC(=O)[C@H](CCCN)NCc2ccccc2Sc2c(cc(Cl)cc2C(F)(F)F)CNC(=O)[C@@H]1Cc1c[nH]c2ccccc12 [Example 13, (12S,15S,18S)-15-(4-Amino-butyl)-18-(3-amino-propyl)-6-chloro-12-(1H-indol-3-ylmethyl)-13-methyl-4-trifluoromethyl-2-thia-10,13,16,19-tetraaza-tricyclo[19.4.0.0*3,8*]pentacosa-1(25),3,5,7,21,23-hexaene-11,14,17-trione] | 16 (≈ 20.7 µM) | – |
| CN1C(=O)[C@H](CCCCN)NC(=O)[C@H](CCCN)NCc2ccccc2Sc2c(Cl)cc(C(F)(F)F)cc2CNC(=O)[C@@H]1Cc1c[nH]c2ccccc12 [Example 11, (12S,15S,18S)-15-(4-Amino-butyl)-18-(3-amino-propyl)-4-chloro-12-(1H-indol-3-ylmethyl)-13-methyl-6-trifluoromethyl-2-thia-10,13,16,19-tetraaza-tricyclo[19.4.0.0*3,8*]pentacosa-1(25),3,5,7,21,23-hexaene-11,14,17-trione] | 16 (≈ 20.7 µM) | – |
